test system: histone deacetylase (HDAC); assay: cellular acetylation assay (histone acetylation ELISA in PC3 cells); format: cell-based, human; settings: compound 1 μM, 24 h incubation, ELISA with antibodies against acetylated histone H3 or H4
Protocol: In this assay, acetylation of histones is monitored in PC3 cells. High acetylation correlates with inhibition of histone deacetylase by compounds. Cell viability is monitored in parallel to estimate the cytotoxicity of compounds.
PC3 cells, a human prostate carcinoma cell line, are seeded as 1800 cells per well of a 384-well microtiterplate in RPMI 1640 (including 5% FCS, 2 mM glutamine and pen/strep).
After 48 h at 37° C. pre-diluted compounds are added to a final concentration of 1 uM. Compounds are pre-diluted in dimethyl sulfoxide (DMSO) resulting in a final concentration of DMSO of 0.5% per well.
After 24 h incubation cell viability is determined by adding cell proliferation reagent WST-1 (Roche Molecular Biochemicals). Another 60 min later the optical density (OD) is measured (450 nm versus 690 nm).
After measurement the cell layer is prepared for the ELISA reaction. Medium is aspirated and cells are fixed in ethanol at −20° C. for 60 min. After washing with PBS/Tween the blocking solution (PBS/5% FCS/Tween) is added and the cell layer is washed again. Antibodies against acetylated histone H3 or H4 (rabbit polyklonal IgG, Upstate Biotechnologie) are added at a dilution of 1:200 for 60 min at 37° C. As a second antibody goat anti rabbit IgG (H+L) humanIgG adsorbed-HRP conjugate (Dako) is used (1:2000 diluted). Cells are washed 3 times and the peroxidase substrate ABTS is allowed to react for 30–60 min at 37° C. The OD is measured at 405 nm.
The percentage of acetylation is calculated after substraction of blank O.D.s: […]

SMILES | cell acetylation (PC3, 1 μM) [% of control]
CC(C)N(CCNC(=O)c1ccc(C(=O)Nc2ccccc2N)cc1)C(C)C [Example 4-1, N-(2-amino-phenyl)-N′-(2-diisopropylamino-ethyl)-terephthalamide] | 399.3 % of control
CCCCN(CCCC)CCCNC(=O)c1ccc(C(=O)Nc2ccccc2N)nc1 [Example 3-20, pyridine-2,5-dicarboxylic acid 2-[(2-amino-phenyl)-amide]5-[(3-dibutylamino-propyl)-amide]] | 223.8 % of control
NC(=O)c1ccc(C(=O)Nc2ccccc2N)s1 [Example 1-44, thiophene-2,5-dicarboxylic acid 2-amide 5-[(2-amino-phenyl)-amide]] | 185.6 % of control
CC(=O)Nc1ccc(C(=O)Nc2ccccc2N)cc1 [Reference Compound, 4-acetylamino-N-(2-aminophenyl)-benzamide, reference compound] | 152 % of control
CN(C)CCNC(=O)c1ccc(C(=O)Nc2ccccc2N)s1 [Example 1-18, Thiophene-2,5-dicarboxylic acid 2-[(2-amino-phenyl)-amide]5-[(2-dimethylaminoethyl)-amide]] | 233.9 % of control
CCC(C)NC(=O)c1ccc(C(=O)Nc2ccccc2N)s1 (stereo not shown) [Example 1-24, Thiophene-2,5-dicarboxylic acid 2-[(2-amino-phenyl)-amide]5-sec-butylamide] | 211.2 % of control
CN(C)CCNC(=O)c1ccc(C(=O)Nc2ccccc2N)nc1 [Example 3-5, pyridine-2,5-dicarboxylic acid 2-[(2-amino-phenyl)-amide]5-[(2-dimethylamino-ethyl)-amide]] | 154.6 % of control
CCCCN(C)C(=O)c1ccc(C(=O)Nc2ccccc2N)s1 [Example 1-19, thiophene-2,5-dicarboxylic acid 2-[(2-amino-phenyl)-amide]5-(butyl-methyl-amide)] | 118.8 % of control
CC(C)N(CCNC(=O)c1ccc(C(=O)Nc2ccccc2N)cn1)C(C)C [Example 2-1, Pyridine-2,5-dicarboxylic acid 5-[(2-amino-phenyl)-amide]2-[(2-diisopropylamino-ethyl)-amide]] | 206.6 % of control
CCCCCC(C)NC(=O)c1ccc(C(=O)Nc2ccccc2N)s1 (stereo not shown) [Example 1-6, Thiophene-2,5-dicarboxylic acid 2-[(2-amino-phenyl)-amide]5-[(1-methyl-hexyl)-amide]] | 122.9 % of control
CC(C)N(CCNC(=O)c1ccc(C(=O)Nc2ccccc2N)nc1)C(C)C [Example 3-1, pyridine-2,5-dicarboxylic acid 2-[(2-amino-phenyl)-amide]5-[(2-diisopropylamino-ethyl)-amide]] | 244.8 % of control
CCCCN(CCCC)CCCNC(=O)c1ccc(C(=O)Nc2ccccc2N)s1 [Example 1-4, Thiophene-2,5-dicarboxylic acid 2-[(2-amino-phenyl)-amide]5-[(3-dibutylamino-propyl)-amide]] | 195.7 % of control
CCCC(C)NC(=O)c1ccc(C(=O)Nc2ccccc2N)s1 (stereo not shown) [Example 1-1, Thiophene-2,5-dicarboxylic acid 2-[(2-amino-phenyl)-amide]5-[(1-methyl-butyl)-amide]] | 137.2 % of control
CCC(C)CNC(=O)c1ccc(C(=O)Nc2ccccc2N)s1 (stereo not shown) [Example 1-35, Thiophene-2,5-dicarboxylic acid 2-[(2-amino-phenyl)-amide]5-[(2-methyl-butyl)-amide]] | 135.4 % of control
CCOC(=O)CC(C)NC(=O)c1ccc(C(=O)Nc2ccccc2N)nc1 (stereo not shown) [Example 3-9, 3-{[6-(2-amino-phenylcarbamoyl)-pyridine-3-carbonyl]-amino}-butyric acid ethyl ester] | 211.6 % of control
CN(C)CC(C)(C)CNC(=O)c1ccc(C(=O)Nc2ccccc2N)s1 [Example 1-17, Thiophene-2,5-dicarboxylic acid 2-[(2-amino-phenyl)-amide]5-[(3-dimethylamino-2,2-dimethylpropyl)-amide]] | 149.8 % of control
